ChEMBL document CHEMBL5058643, “Data for DCP probe BI-2081” (2022)

How the values were obtained:
[1] = target: Endothelin-1 receptor (Homo sapiens) (UniProt P25101); experiment: ETA/H Eurofins SafetyScreen44 (BI); details: Compound concentration 10.0 uM
[2] = target: Histamine H2 receptor (Homo sapiens) (UniProt P25021); experiment: H2/APT/HS Eurofins SafetyScreen44 (BI); details: filed as antagonist, Compound concentration 10.0 uM
hERG (KCNH2) = hERG (KCNH2) (Homo sapiens, UniProt Q12809); experiment: HERG_DOFETILIDE Eurofins SafetyScreen44 (BI); set-up: mode of action inhibitor; details: probe [3H] Dofetilide, compound concentration 10 uM, read-out: % Ctrl
Chain of hERG (KCNH2) (Q12809 whole entry): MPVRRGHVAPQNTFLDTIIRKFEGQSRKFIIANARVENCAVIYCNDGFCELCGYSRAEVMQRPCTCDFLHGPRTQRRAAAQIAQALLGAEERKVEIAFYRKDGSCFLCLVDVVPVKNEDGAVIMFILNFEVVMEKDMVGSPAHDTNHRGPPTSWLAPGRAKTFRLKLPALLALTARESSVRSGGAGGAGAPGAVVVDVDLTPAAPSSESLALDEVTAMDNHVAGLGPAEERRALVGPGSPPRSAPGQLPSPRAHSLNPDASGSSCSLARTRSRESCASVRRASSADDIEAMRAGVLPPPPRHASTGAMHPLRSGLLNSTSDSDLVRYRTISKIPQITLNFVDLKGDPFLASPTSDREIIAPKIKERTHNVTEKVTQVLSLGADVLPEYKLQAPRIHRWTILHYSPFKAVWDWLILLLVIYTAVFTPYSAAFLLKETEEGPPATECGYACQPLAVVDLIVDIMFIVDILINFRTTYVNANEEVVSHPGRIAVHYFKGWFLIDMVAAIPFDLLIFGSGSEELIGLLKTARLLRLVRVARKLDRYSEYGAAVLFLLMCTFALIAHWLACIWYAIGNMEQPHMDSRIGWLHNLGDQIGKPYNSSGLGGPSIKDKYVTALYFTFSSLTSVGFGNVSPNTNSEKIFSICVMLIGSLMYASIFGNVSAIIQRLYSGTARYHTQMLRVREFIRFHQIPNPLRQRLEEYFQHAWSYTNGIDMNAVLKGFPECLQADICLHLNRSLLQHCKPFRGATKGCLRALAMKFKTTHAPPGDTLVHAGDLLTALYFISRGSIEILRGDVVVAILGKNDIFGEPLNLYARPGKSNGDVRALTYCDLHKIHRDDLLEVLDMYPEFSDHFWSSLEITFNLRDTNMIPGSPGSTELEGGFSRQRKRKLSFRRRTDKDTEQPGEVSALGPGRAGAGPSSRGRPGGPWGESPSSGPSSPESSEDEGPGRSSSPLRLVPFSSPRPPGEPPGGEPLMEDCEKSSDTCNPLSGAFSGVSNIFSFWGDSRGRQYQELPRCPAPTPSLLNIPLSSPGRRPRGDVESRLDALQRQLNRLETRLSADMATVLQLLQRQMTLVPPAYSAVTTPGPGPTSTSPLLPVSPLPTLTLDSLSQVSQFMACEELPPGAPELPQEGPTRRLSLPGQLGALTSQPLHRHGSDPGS

[3] = target: cGMP-inhibited 3',5'-cyclic phosphodiesterase 3A (Homo sapiens) (UniProt Q14432); experiment: PDE3A Eurofins SafetyScreen44 (BI); details: Compound concentration 10.0 uM
Chain of cGMP-inhibited 3',5'-cyclic phosphodiesterase 3A (Homo sapiens) (Q14432 whole entry): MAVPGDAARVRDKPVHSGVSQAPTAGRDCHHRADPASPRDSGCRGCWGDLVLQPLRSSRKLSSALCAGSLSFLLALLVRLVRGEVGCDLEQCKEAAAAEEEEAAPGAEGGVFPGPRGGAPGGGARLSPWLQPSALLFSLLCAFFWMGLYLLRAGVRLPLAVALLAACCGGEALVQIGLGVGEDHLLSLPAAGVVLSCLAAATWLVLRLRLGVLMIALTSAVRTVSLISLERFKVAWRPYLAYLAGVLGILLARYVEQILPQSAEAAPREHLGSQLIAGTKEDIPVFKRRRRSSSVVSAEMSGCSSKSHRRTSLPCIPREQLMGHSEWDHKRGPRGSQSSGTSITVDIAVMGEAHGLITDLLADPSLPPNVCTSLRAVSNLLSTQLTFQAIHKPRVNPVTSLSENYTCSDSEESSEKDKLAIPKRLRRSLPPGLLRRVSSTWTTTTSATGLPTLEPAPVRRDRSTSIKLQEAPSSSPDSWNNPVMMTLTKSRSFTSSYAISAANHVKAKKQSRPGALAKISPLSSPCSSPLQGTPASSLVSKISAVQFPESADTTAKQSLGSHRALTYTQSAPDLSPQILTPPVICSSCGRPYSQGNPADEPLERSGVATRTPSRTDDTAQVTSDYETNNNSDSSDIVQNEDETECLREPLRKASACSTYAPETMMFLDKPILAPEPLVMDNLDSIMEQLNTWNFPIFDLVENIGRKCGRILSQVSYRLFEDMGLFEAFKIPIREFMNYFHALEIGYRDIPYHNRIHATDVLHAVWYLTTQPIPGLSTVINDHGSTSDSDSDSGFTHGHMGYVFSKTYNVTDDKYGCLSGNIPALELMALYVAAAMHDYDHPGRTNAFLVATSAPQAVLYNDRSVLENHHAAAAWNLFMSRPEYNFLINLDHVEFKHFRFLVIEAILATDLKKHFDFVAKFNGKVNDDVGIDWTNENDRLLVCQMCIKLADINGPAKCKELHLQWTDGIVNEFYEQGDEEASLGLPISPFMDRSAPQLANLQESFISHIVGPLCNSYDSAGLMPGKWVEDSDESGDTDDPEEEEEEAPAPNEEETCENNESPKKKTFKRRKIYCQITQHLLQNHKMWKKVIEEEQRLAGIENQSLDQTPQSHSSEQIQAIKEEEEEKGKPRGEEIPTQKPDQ

[4] = target: Vasopressin V1a receptor (Homo sapiens) (UniProt P37288); experiment: V1A/HUM Eurofins SafetyScreen44 (BI); details: Compound concentration 10.0 uM
Chain of Vasopressin V1a receptor (Homo sapiens) (P37288 whole entry, looked up): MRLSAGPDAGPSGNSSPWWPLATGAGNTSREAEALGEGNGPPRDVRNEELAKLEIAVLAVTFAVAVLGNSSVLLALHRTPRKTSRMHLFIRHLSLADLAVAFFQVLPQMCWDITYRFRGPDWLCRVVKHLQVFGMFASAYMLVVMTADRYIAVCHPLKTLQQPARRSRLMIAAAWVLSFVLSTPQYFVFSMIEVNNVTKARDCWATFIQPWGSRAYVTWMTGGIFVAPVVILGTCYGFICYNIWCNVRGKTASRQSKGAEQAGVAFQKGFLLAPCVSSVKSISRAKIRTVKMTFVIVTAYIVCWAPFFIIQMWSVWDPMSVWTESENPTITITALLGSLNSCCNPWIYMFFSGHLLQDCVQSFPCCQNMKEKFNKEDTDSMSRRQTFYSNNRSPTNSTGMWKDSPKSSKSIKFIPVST

[5] = target: T1, Alpha-2C adrenergic receptor (Homo sapiens) (UniProt P18825); experiment: ALPHA2C/H Eurofins SafetyScreen44 (BI)
T1 sequence (whole entry): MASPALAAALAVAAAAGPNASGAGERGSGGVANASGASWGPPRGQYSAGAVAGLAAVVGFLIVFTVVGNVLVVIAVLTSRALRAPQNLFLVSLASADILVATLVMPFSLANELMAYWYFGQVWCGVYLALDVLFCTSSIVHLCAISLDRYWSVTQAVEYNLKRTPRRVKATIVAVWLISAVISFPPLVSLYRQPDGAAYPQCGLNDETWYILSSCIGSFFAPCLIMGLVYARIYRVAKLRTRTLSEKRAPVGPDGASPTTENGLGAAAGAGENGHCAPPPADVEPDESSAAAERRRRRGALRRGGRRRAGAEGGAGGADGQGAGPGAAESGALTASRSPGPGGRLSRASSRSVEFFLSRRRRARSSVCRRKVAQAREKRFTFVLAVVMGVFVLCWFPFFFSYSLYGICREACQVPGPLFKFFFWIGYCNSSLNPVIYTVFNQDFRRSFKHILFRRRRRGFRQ

[6] = target: Voltage-dependent L-type calcium channel subunit alpha-1C (Rattus norvegicus, UniProt P22002); experiment: CA+/DILSI/RA Eurofins SafetyScreen44 (BI); details: compound concentration 10 uM, read-out: % Ctrl
[7] = target: Melatonin receptor type 1A (Homo sapiens) (UniProt P48039); experiment: MT1/H Eurofins SafetyScreen44 (BI); details: Compound concentration 10.0 uM
Chain of Melatonin receptor type 1A (Homo sapiens) (P48039 whole entry): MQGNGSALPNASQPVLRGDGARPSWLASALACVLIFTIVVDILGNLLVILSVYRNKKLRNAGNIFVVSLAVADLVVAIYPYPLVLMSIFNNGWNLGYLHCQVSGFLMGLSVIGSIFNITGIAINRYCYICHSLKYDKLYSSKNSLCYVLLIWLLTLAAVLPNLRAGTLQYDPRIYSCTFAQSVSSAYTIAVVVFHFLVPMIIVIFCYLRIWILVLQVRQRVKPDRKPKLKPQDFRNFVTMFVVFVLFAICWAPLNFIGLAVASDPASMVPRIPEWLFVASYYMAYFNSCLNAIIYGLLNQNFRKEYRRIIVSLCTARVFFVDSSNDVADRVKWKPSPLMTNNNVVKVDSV

Chain of Histamine H2 receptor (Homo sapiens) (P25021 whole entry): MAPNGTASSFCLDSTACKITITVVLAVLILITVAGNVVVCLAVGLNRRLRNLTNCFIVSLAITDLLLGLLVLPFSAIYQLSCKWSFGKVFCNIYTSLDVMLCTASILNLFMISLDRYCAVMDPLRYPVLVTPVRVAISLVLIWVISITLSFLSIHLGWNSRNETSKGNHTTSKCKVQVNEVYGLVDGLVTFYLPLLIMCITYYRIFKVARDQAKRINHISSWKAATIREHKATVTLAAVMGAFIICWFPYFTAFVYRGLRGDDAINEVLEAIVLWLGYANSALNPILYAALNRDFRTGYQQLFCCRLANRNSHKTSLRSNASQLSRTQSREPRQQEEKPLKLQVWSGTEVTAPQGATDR
Chain of Endothelin-1 receptor (Homo sapiens) (P25101 whole entry): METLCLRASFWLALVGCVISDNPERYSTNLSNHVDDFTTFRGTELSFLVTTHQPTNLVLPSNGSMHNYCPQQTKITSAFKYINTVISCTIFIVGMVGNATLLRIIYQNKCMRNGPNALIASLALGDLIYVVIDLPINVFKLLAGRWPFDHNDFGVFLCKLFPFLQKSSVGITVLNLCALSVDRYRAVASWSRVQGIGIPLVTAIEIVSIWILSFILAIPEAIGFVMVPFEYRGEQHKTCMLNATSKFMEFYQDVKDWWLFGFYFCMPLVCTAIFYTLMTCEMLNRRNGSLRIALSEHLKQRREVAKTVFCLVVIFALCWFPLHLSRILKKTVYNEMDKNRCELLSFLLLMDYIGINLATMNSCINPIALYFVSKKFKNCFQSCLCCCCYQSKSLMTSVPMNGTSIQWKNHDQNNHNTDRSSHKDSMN

Row | SMILES | residual activity [1] [%] | residual activity [2] [%] | activity at 10 µM (hERG (KCNH2)) | residual activity [3] [%] | residual activity [4] [%] | residual activity ([5]; Compound concentration 0.1 uM) [%] | residual activity ([5]; Compound concentration 0.3 uM) [%] | residual activity ([5]; Compound concentration 1.0 uM) [%] | residual activity ([5]; Compound concentration 3.0 uM) [%] | residual activity ([5]; Compound concentration 10.0 uM) [%] | residual activity ([5]; Compound concentration 30.0 uM) [%] | activity at 10 µM [6] | residual activity [7] [%]
1 | COCCCS(=O)(=O)c1cc(C)c(-c2ccc(F)c3c2CC[C@H]3Oc2ccc3c(c2)OC[C@H]3CC(=O)O)c(C)c1 | 56 | 93 | 93% (not active) | 100 | 90 | – | – | – | – | – | – | – | –
2 | Cc1cc(OCCC(C)(C)O)cc(C)c1-c1ccc(F)c2c1CC[C@H]2Oc1ccc2c(c1)OC[C@H]2CC(=O)O | – | – | – | – | – | 93 | 100 | 95 | 82 | 23 | 1 | 100% (not active) | 98
